Experiments:
antibody [1] = assay: Pepscan ELISA, replacement analyses and lengthening (Example-4); format: binding; details: value is the antibody concentration
From the text: In addition to random minipepscan libraries mimotopes can also be identified from standard pepscan libraries. These libraries contain all overlapping 12-mers (or shorter/longer) covering the linear sequence of a known protein (Slootstra et al., 1995a).
(§1) In a replacement analysis the binding activity of complete series of substitutions analogs of lead peptides, in which each position is replaced by each of the other 19 natural L-amino acids, is investigated in detail. In addition, it is possible to use the 20 D-amino acids as well as other available non-natural amino acids. Substitutions that result in improved binding are combined into new sequences of building blocks. These new sequences are again tested in a 2nd replacement analysis. If necessary more rounds of replacement analyses are performed. After each round of a replacement analyses the antibody (or other soluble receptor) concentration can be lowered to obtain maximal binding activity (e.g. from 100 µg/ml to 0.01 µg/ml after 2 rounds of replacement-analyses, as shown in example-1).
(§2) Notes for the examples: • the 10 µg/ml, 1 µg/ml etc. denote the antibody concentration. • The line "improved position-01" etc. means that this change in amino acid (is underlined) improves binding activity in pepscan elisa at given antibody concentration. Positions that could not be improved are not mentioned (e.g. position-08 in first replacement-net of example-1, i.e. the original I at position 8 gives the highest activity).
In example-4, a lead peptide was identified through standard pepscan analysis, i.e. the antibody was tested on all overlapping 12-mers covering the linear sequence of the protein. The following two rounds of replacement analyses were done as discussed in example-1. In addition, the mimotope was lengthened to the left and right (3 amino acids, this can be further lengthened) through additional replacement analyses.

antibody [2] = assay: Pepscan ELISA, replacement analyses of three leads and consensus (Example-6); format: binding; details: value is the antibody concentration
From the text: (§3) Lead peptides can also be derived from other type of libraries such as for example phage-display libraries.
as §1, §2
In example-6, different lead peptides were used to identify a consensus sequence. Each lead peptide was used in multiple replacement analyses (two rounds).

antibody [3] = assay: Pepscan ELISA, replacement analyses (Example-2); format: binding; details: value is the antibody concentration, antibody binds a non-linear epitope
Monoclonal antibody 26/9 = assay: PEPSCAN-based ELISA, binding of peptides to antibody 26/9 (Example-1); details: value is the antibody 26/9 concentration at which the peptide shows binding activity in pepscan elisa
antibody [4] = assay: Pepscan ELISA, lengthening and replacement analyses (Example-3); format: binding; details: value is the antibody concentration
From the text: as §3, §1, §2
In example-3, lead peptides were identified through phage-display. Adjacent cysteines/glycines were added to improve binding activity. After obtained activity multiple replacement analyses were done as discussed in example-1.

antibody [5] = assay: Pepscan ELISA, replacement analyses of consensus sequence (Example-5); format: binding; details: value is the antibody concentration
Experimental: All 4550 dodecapeptides were ranked according to their binding activity. According to their ranking consensus sequences and motifs are identified. Initial methods of lead optimization that only use the sequence of the top 50 molecules have been described in Slootstra et al.(1995b; 1997). The present method uses all 4550 sequences. Firstly, the frequency and/or distribution of single amino acids and the dipeptide motifs OO, dipeptide motifs OXO and dipeptide motifs OXXO is determined using Microsoft Excel 4.0 (O, one of the 20 natural L-amino acids; X, any residue). Secondly, properties of the amino acids (hydrophobicity, charge etc.) are included in the analysis. […] This is done by substitution of building blocks that inhibit activity and include building blocks that improve binding activity.
as §1, §2
In example-5, a set of similar lead peptides were used to identify a consensus sequence. The consensus sequences were identified as discussed in materials and method. This sequence was used in the replacement analyses. ALIGNMENT OF LEAD PEPTIDES: • QNNMKLFRGCVP • RGIKWNEMTDQW • KLQQNPTFYPPV • TNNCKEFAGIVP • RGILTNIMKDQW • IVQNNPKFFRGA

With AIMIKLILVNFR the activity at (antibody [1]) was “activity at ≥ 5.0 µg/ml”.
In the case of ANAPSA, the activity at (antibody [2]) is reported as “: activity at ≥ 5.0 µg/ml”.
With ANAPSAIGAFGL the activity at (antibody [3]) was “activity at ≥ 5.0 µg/ml”.
For ANWPSA, the activity at (antibody [2]) was “: activity at ≥ 10.0 µg/ml”.
ANWPSAIGAFGL was tested, and the activity at (antibody [3]) was “activity at ≥ 10.0 µg/ml”.
With ANWSSA the activity at (antibody [2]) was “: activity at ≥ 5.0 µg/ml”.
ANWSSAIGAFGL was tested, and the activity at (antibody [3]) was “activity at ≥ 5.0 µg/ml”.
In the case of ANWSSAIGAFKL, the activity at (antibody [3]) is reported as “activity at ≥ 5.0 µg/ml”.
For APPIKLIRVNYR, the activity at (antibody [1]) was “activity at ≥ 0.5 µg/ml”.
For AVMIKLILVNFR, the activity at (antibody [1]) was “activity at ≥ 5.0 µg/ml”.
For AVMIKLILVNYR, the activity at (antibody [1]) was “activity at ≥ 5.0 µg/ml”.
With AVMIKLIRVNFR the activity at (antibody [1]) was “activity at ≥ 5.0 µg/ml”.
AVPIKLILVNFR was tested, and the activity at (antibody [1]) was “activity at ≥ 5.0 µg/ml”.
AWWPSA was tested, and the activity at (antibody [2]) was “: activity at ≥ 5.0 µg/ml”.
For AWWPSAIGAFGL, the activity at (antibody [3]) was “activity at ≥ 5.0 µg/ml”.
CGCAAENIRCYA was tested, and the activity at (Monoclonal antibody 26/9) was “activity at ≥ 10.0 µg/ml”.
With CGCAAMDIRCYA the activity at (Monoclonal antibody 26/9) was “activity at ≥ 10.0 µg/ml”.
With CGCAAMNIRNYA the activity at (Monoclonal antibody 26/9) was “activity at ≥ 10.0 µg/ml”.
For CGCAANINIMCYA, the activity at (Monoclonal antibody 26/9) was “activity at ≥ 10.0 µg/ml”.
With CGCAEMNIRCYA the activity at (Monoclonal antibody 26/9) was “activity at ≥ 10.0 µg/ml”.
CGCEAMMIRCYA was tested, and the activity at (Monoclonal antibody 26/9) was “activity at ≥ 10.0 µg/ml”.
For CGDAAMNIRCYA, the activity at (Monoclonal antibody 26/9) was “activity at ≥ 10.0 µg/ml”.
For CMCAAMNIRCYA, the activity at (Monoclonal antibody 26/9) was “activity at ≥ 10.0 µg/ml”.
For CSDTHKGCG, the activity at (antibody [4]) was “activity at ≥ 5.0 µg/ml”.
In the case of CSDTRKGC, the activity at (antibody [4]) is reported as “activity at ≥ 10.0 µg/ml”.
CSDTRYGCG was tested, and the activity at (antibody [4]) was “activity at ≥ 5.0 µg/ml”.
In the case of CSETRKGCG, the activity at (antibody [4]) is reported as “activity at ≥ 5.0 µg/ml”.
In the case of CTDTRKGCG, the activity at (antibody [4]) is reported as “activity at ≥ 5.0 µg/ml”.
With CTETHFGCG the activity at (antibody [4]) was “activity at ≥ 0.5 µg/ml”.
CTETHYGCG was tested, and the activity at (antibody [4]) was “activity at ≥ 1.0 µg/ml”.
With CTETKYGCG the activity at (antibody [4]) was “activity at ≥ 0.5 µg/ml”.
In the case of CYETHYGCG, the activity at (antibody [4]) is reported as “activity at ≥ 0.5 µg/ml”.
For CYETKFGCG, the activity at (antibody [4]) was “activity at ≥ 0.1 µg/ml”.
With CYETKFGNG the activity at (antibody [4]) was “activity at ≥ 0.05 µg/ml”.
DYETKFGCG was tested, and the activity at (antibody [4]) was “activity at ≥ 0.05 µg/ml”.
DYETKFGNG was tested, and the activity at (antibody [4]) was “activity at ≥ 0.01 µg/ml”.
With EGCAAMNIRCYA the activity at (Monoclonal antibody 26/9) was “activity at ≥ 10.0 µg/ml”.
In the case of EMDEEEDIMDYA, the activity at (Monoclonal antibody 26/9) is reported as “activity at ≥ 0.1 µg/ml”.
With EMDEEEDIPNYA the activity at (Monoclonal antibody 26/9) was “activity at ≥ 0.1 µg/ml”.
In the case of EMDEEEDVMNYA, the activity at (Monoclonal antibody 26/9) is reported as “activity at ≥ 0.1 µg/ml”.
With HNWPSA the activity at (antibody [2]) was “: activity at ≥ 5.0 µg/ml”.
For HNWPSAIGAFGL, the activity at (antibody [3]) was “activity at ≥ 5.0 µg/ml”.
For HWASPA, the activity at (antibody [2]) was “: activity at ≥ 0.5 µg/ml”.
HWASSAIGAFKL was tested, and the activity at (antibody [3]) was “activity at ≥ 1.0 µg/ml”.
With HWASSAMGAFKL the activity at (antibody [3]) was “activity at ≥ 0.5 µg/ml”.
For HWGSSAIGAFKL, the activity at (antibody [3]) was “activity at ≥ 0.5 µg/ml”.
In the case of HYASSAIGAFKL, the activity at (antibody [3]) is reported as “activity at ≥ 0.5 µg/ml”.
For “IKLIRVNYRCEN [combination impr., replacement analysis-IV]”, the activity at (antibody [1]) was “activity at ≥ 0.1 µg/ml”.
In the case of IKLIRVNYRCQP, the activity at (antibody [1]) is reported as “activity at ≥ 0.5 µg/ml”.
In the case of IKLIRVNYRMEP, the activity at (antibody [1]) is reported as “activity at ≥ 0.5 µg/ml”.
In the case of IKLIRVNYRMQN, the activity at (antibody [1]) is reported as “activity at ≥ 0.5 µg/ml”.
In the case of IKLIRVNYRMQP [lengthened right], the activity at (antibody [1]) is reported as “activity at ≥ 1.0 µg/ml”.
For ILQNNMKDFRG, the activity at (antibody [5]) was “activity at ≥ 1.0 µg/ml”.
In the case of ILQNNMKDWRG, the activity at (antibody [5]) is reported as “activity at ≥ 0.5 µg/ml”.
With ILQNNMPDFRG the activity at (antibody [5]) was “activity at ≥ 0.5 µg/ml”.
With ILTNNMGDWRG the activity at (antibody [5]) was “activity at ≥ 0.05 µg/ml”.
With ILTNNMGDWYG the activity at (antibody [5]) was “activity at ≥ 0.01 µg/ml”.
With ILTNNMKDFRG the activity at (antibody [5]) was “activity at ≥ 0.5 µg/ml”.
In the case of ILTNNMPDWRG, the activity at (antibody [5]) is reported as “activity at ≥ 0.1 µg/ml”.
ILTNNMPDWYG was tested, and the activity at (antibody [5]) was “activity at ≥ 0.05 µg/ml”.
In the case of KIWYPPIKLIRV, the activity at (antibody [1]) is reported as “activity at ≥ 0.5 µg/ml”.
In the case of KIYYPPIKLIRV [lengthened left], the activity at (antibody [1]) is reported as “activity at ≥ 1.0 µg/ml”.
With KIYYPPISLIRV the activity at (antibody [1]) was “activity at ≥ 0.5 µg/ml”.
With KLATRW the activity at (antibody [2]) was “: activity at ≥ 5.0 µg/ml”.
In the case of KLITRW, the activity at (antibody [2]) is reported as “: activity at ≥ 10.0 µg/ml”.
With KLITRY the activity at (antibody [2]) was “: activity at ≥ 5.0 µg/ml”.
In the case of KPYYPPIKLIRV, the activity at (antibody [1]) is reported as “activity at ≥ 0.5 µg/ml”.
With KSITRW the activity at (antibody [2]) was “: activity at ≥ 5.0 µg/ml”.
KWASSAIGAFKL was tested, and the activity at (antibody [3]) was “activity at ≥ 0.5 µg/ml”.
In the case of KYFSSAMGAFKL, the activity at (antibody [3]) is reported as “activity at ≥ 0.05 µg/ml”.
KYFSSGMGAFKL was tested, and the activity at (antibody [3]) was “activity at ≥ 0.01 µg/ml”.
With KYGSSAMGAFKL the activity at (antibody [3]) was “activity at ≥ 0.1 µg/ml”.
KYGSSGMGAFKL was tested, and the activity at (antibody [3]) was “activity at ≥ 0.05 µg/ml”.
In the case of NICHWA, the activity at (antibody [2]) is reported as “: activity at ≥ 1.0 µg/ml”.
For NICSWS, the activity at (antibody [2]) was “: activity at ≥ 5.0 µg/ml”.
With NVCHWA the activity at (antibody [2]) was “: activity at ≥0.5 µg/ml”.
NVCHWS was tested, and the activity at (antibody [2]) was “: activity at ≥ 5.0 µg/ml”.
With NVCSWA the activity at (antibody [2]) was “: activity at ≥ 5.0 µg/ml”.
With NVCSWS the activity at (antibody [2]) was “: activity at ≥ 10.0 µg/ml”.
RIYYPPIKLIRV was tested, and the activity at (antibody [1]) was “activity at ≥ 0.5 µg/ml”.
In the case of “RPWYPPISLIRV [combination impr., replacement analysis-III]”, the activity at (antibody [1]) is reported as “activity at ≥ 0.1 µg/ml”.
In the case of “RPWYPPISLIRVNYRCEN [combination total, 18-mer mimotope]”, the activity at (antibody [1]) is reported as “activity at ≥ 0.01 µg/ml”.
With RVMIKLILVNFR the activity at (antibody [1]) was “activity at ≥ 10.0 µg/ml”.
In the case of SLITRW, the activity at (antibody [2]) is reported as “: activity at ≥ 5.0 µg/ml”.
SSATRY was tested, and the activity at (antibody [2]) was “: activity at ≥ 1.0 µg/ml”.
YICHWA was tested, and the activity at (antibody [2]) was “: activity at ≥0.5 µg/ml”.
YIPIKLIRVNYR was tested, and the activity at (antibody [1]) was “activity at ≥ 0.5 µg/ml”.
For YPPIKLIRVNYR, the activity at (antibody [1]) was “activity at ≥ 0.1 µg/ml”.
With YVCHWA the activity at (antibody [2]) was “: activity at ≥ 0.1 µg/ml”.
For YVCHWASSATRY, the activity at (antibody [2]) was “activity at 0.01 µg/ml”.
